System: oxazolone-induced hypersensitivity reaction in oxazolone-sensitized mice
Assay: Oxazolone-induced delayed-type hypersensitivity (dermal sensitization) in mice
Format: in vivo, CD1 mice

SMILES: C[C@]12CCC(=O)C=C1CC[C@@H]1[C@@H]2[C@@H](O)C[C@@]2(C)[C@H]1CC[C@]2(O)C(=O)CO [hydrocortisone]
- body weight (systemic effect) (1% hydrocortisone topical during the challenges, FIG. 7): decrease of body weight
- suppression of mean increase of ear thickness (MIET) (first challenge (acute inflammation), 1% topical twice daily, FIG. 4): 74%
- erythema of the ear (first challenge, topical twice daily): reduced erythema of the ear

From patent US20050101632A1, “Method for the treatment of inflammation” (priority 2000, published 2005)
